Columns and labels:
Format in all cases: protein-complex assay
[1] = molecular target: Integrin alpha-IIb/beta-3 (Homo sapiens, UniProt P05106+P08514); assay: In vitro inhibitory activity against alpha IIb beta IIIa fibrinogen protein interaction was measured by ELISA
[2] = molecular target: Integrin alpha-5/beta-1 (Homo sapiens, UniProt P05556+P08648); assay: In vitro inhibitory activity against alpha 5 beta 1 fibronectin protein interaction was measured by ELISA
[3] = molecular target: Integrin alpha-V/beta-3 (Homo sapiens, UniProt P05106+P06756); assay: In vitro inhibitory activity against alpha v beta 3 vitronectin protein interaction was measured by ELISA
[4] = molecular target: Integrin alpha-V/beta-5 (Homo sapiens, UniProt P06756+P18084); assay: In vitro inhibitory activity against alpha v beta 5 vitronectin protein interaction was measured by ELISA
Chain of Integrin alpha-V/beta-5 (P06756 31-889 limits assumed): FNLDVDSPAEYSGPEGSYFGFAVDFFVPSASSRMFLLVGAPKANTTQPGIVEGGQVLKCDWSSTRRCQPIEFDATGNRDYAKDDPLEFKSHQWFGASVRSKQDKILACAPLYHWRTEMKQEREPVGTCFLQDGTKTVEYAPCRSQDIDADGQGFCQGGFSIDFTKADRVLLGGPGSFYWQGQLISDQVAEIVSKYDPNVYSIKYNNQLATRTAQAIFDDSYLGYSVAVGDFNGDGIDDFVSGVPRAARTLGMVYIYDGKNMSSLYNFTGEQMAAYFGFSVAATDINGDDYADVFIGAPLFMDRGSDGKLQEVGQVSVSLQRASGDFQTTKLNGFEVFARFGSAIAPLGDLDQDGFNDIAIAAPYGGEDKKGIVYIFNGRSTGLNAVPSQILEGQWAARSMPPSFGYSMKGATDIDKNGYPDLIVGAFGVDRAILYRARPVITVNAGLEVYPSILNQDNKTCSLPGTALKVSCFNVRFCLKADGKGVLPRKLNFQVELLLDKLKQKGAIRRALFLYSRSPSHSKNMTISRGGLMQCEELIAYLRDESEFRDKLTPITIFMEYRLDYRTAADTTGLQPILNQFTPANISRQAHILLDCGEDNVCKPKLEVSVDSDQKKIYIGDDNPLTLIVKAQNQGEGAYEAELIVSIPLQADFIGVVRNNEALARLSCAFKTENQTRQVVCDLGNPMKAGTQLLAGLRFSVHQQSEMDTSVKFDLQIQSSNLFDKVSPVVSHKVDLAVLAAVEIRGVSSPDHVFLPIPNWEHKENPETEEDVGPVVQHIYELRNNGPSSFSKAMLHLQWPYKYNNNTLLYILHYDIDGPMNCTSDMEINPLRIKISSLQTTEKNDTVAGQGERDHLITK
Chain of Integrin alpha-V/beta-5 (P06756 891-1048 limits assumed): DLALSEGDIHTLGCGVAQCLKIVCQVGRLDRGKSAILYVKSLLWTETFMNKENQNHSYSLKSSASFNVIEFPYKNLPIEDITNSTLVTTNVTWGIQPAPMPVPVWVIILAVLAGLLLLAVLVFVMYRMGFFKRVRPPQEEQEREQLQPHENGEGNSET
Chain of Integrin alpha-V/beta-5 (P18084 24-799 limits assumed): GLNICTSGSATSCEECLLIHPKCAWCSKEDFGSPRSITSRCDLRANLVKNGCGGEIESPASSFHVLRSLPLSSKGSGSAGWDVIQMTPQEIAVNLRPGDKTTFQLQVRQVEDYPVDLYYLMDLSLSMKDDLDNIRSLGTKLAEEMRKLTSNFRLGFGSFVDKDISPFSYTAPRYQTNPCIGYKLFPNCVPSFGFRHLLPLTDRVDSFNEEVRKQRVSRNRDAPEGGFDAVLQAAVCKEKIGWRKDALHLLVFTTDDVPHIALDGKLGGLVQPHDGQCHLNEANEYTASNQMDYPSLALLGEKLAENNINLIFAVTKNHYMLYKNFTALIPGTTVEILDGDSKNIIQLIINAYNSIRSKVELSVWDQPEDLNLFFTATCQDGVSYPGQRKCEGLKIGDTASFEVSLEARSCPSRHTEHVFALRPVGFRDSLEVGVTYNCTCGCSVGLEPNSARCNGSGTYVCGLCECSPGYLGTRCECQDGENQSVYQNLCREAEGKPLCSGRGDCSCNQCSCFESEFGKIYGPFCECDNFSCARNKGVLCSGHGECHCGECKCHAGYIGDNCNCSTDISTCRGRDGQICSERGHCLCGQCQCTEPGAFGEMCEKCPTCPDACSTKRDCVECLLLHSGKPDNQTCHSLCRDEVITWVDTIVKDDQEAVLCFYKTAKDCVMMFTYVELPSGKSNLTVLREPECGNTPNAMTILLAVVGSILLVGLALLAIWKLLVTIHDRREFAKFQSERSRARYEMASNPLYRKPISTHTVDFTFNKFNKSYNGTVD

Chain of Integrin alpha-IIb/beta-3 (P05106 27-788 limits assumed): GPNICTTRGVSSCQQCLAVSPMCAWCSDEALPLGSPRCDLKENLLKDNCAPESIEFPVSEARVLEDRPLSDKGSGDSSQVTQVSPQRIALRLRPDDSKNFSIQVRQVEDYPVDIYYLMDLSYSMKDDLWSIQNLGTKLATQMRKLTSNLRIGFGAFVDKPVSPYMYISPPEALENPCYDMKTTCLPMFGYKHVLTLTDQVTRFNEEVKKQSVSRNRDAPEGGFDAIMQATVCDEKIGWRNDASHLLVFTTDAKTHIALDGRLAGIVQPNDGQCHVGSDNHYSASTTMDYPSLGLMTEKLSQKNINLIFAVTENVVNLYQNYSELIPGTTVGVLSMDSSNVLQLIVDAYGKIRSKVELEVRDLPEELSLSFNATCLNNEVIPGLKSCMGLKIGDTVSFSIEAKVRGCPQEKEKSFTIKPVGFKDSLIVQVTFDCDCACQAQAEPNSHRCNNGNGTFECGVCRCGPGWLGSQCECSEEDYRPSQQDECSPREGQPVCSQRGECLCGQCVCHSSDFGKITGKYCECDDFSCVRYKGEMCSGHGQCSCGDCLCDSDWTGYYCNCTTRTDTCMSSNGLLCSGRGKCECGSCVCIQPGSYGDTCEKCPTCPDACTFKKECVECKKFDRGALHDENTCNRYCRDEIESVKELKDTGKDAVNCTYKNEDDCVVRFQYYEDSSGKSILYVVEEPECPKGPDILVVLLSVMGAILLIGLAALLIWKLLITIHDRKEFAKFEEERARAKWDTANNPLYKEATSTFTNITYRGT
Chain of Integrin alpha-IIb/beta-3 (P08514 32-887 limits assumed): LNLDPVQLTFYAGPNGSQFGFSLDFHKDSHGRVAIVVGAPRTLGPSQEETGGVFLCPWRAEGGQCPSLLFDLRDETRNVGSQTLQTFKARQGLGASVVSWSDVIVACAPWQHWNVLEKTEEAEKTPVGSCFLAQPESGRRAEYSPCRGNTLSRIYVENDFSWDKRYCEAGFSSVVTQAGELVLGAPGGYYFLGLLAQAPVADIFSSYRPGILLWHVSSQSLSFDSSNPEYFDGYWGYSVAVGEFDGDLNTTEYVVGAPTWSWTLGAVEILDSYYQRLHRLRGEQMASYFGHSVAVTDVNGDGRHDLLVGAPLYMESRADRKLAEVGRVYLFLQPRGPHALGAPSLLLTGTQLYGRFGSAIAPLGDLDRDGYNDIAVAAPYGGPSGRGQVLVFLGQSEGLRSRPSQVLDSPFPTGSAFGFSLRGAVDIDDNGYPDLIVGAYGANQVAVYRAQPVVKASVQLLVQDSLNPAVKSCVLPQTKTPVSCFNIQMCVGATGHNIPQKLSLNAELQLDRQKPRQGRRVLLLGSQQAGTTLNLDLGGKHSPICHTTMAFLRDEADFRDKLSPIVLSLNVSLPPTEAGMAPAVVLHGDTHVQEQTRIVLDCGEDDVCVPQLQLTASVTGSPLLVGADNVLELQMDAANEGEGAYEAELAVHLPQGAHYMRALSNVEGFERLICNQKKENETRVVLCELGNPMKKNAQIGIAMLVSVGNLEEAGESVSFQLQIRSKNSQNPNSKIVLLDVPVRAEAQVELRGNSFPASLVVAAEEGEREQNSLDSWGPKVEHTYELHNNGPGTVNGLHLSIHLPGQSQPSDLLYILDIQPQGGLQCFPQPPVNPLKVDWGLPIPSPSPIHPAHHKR
Chain of Integrin alpha-IIb/beta-3 (P08514 891-1039 limits assumed): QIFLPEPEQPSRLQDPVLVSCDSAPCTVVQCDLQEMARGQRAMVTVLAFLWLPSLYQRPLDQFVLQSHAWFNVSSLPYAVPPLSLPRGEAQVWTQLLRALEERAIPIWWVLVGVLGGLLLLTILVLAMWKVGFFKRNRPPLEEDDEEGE
Chain of Integrin alpha-V/beta-3 (P05106 27-788 limits assumed): as the sequence (P05106 27-788 limits assumed) above
Chain of Integrin alpha-V/beta-3 (P06756 31-889 limits assumed): as the sequence (P06756 31-889 limits assumed) above
Chain of Integrin alpha-V/beta-3 (P06756 891-1048 limits assumed): as the sequence (P06756 891-1048 limits assumed) above

Compound	IC50 [1] [nM]	IC50 [2] [nM]	IC50 [3] [nM]	IC50 [4] [nM]
O=C(NCC(NS(=O)(=O)c1ccccc1)C(=O)O)c1cc2cc(OCCONC3=NCCN3)ccc2[nH]1 (stereo not given)	170	> 20000	100	> 20000
O=C(NCc1ccccc1)NOCCOc1ccc2[nH]c(C(=O)NCC(NC(=O)OCc3ccccc3)C(=O)O)cc2c1 (stereo not given)			> 20000	
N=C(N)NOCCOc1ccc2[nH]c(C(=O)NC(CC(=O)O)c3cc(Cl)cc(Cl)c3)cc2c1 (stereo not given)			> 20	
N=C(N)NOCCOc1ccc2[nH]c(C(=O)NCC(NC(=O)OCc3ccccc3)C(=O)O)cc2c1 (stereo not given)			7.2	
N=C(N)NOCCOc1ccc2[nH]c(C(=O)NCC(NCc3ccccc3)C(=O)O)cc2c1 (stereo not given)			> 20000	
N=C(N)NOCCOc1ccc2[nH]c(C(=O)NCC(NC(=O)c3ccccc3)C(=O)O)cc2c1 (stereo not given)			310	

Other lines, results leading:

IC50 [1] [nM]	IC50 [2] [nM]	IC50 [3] [nM]	IC50 [4] [nM]	Compound
		10.5		CCCCS(=O)(=O)NC(CNC(=O)c1cc2cc(OCCON=C(N)N)ccc2[nH]1)C(=O)O (stereo not given)
25	> 1000	6.1		N=C(N)NOCCOc1ccc2[nH]c(C(=O)NCC(NS(=O)(=O)c3cc(Cl)cc(Cl)c3)C(=O)O)cc2c1 (stereo not given)
		130		Cc1ccc(S(=O)(=O)NC(CNC(=O)c2cc3cc(OCCO/N=C(\N)NC(=O)OC(C)(C)C)ccc3[nH]2)C(=O)O)cc1 (stereo not given)
		0.4		CC1(C)C2CCC1(S(=O)(=O)NC(CNC(=O)c1cc3cc(OCCONC(=N)N)ccc3[nH]1)C(=O)O)CC2 (stereo not given)
		> 20000		NC(N)=NOCCOc1ccc2[nH]c(C(=O)NCC(N)C(=O)O)cc2c1 (stereo not given)
13		3.4	1000	N=C(N)NOCCOc1ccc2[nH]c(C(=O)NCC(NS(=O)(=O)c3ccccc3)C(=O)O)cc2c1 (stereo not given)
		9		Cc1ccc(S(=O)(=O)NC(CNC(=O)c2cc3cc(OCCON=C(N)N)ccc3[nH]2)C(=O)O)cc1 (stereo not given)

Reference: ChEMBL document CHEMBL1137098, “Design, synthesis, and biochemical evaluation of novel alpha V beta 3 integrin ligands” (Bioorg Med Chem Lett, 2004)
